# Data from US12661345B2, “Compositions for the treatment of hypertension” (The George Institute for Global Health, priority 2017, dated 2026).
# Where two headings read alike, the source gives them in different places.
# Test system: participants with migraine
# Conditions: human, in vivo
# Source text: Difference between groups in participant withdrawals from treatment • 2.
compound,measurement,setting,value
"CC(C)NCC(O)COc1cccc2ccccc12 (centres unmarked) [Propranolol, propranolol]",Discontinuing the study (n/N),4 week,0/10
same,Discontinuing the study (percent),4 week,(0.0%)
same,Discontinuing the study (n/N),8 week,0/10
same,Discontinuing the study (percent),8 week,(0.0%)
same,Discontinuing the study (n/N),12 week,0/10
same,Discontinuing the study (percent),12 week,(0.0%)
same,Deceased (n/N),16 week,0/10
same,Deceased (percent),16 week,(0.0%)
